Article PMC7377376, “Drug targeting CYP2E1 for the treatment of early-stage alcoholic steatohepatitis” (PLoS ONE, 2020)

Assays:
CYP2E1 = details: cited from earlier work
cholesterol synthesis = system: cholesterol synthesis; parameters: method as in printed; details: high concentrations (> or =1.0 mmol/L); ref not given; cited from earlier work
ethanol-fed Wistar rats [1] = experiment: Liver and serum lipid parameters of ethanol-fed rats; assay type: in vivo, rat
From the text: (§1) A total of 68 female Wistar rats (Institute of Pharmacology and Biochemistry Breeding House, Minsk, Belarus) aged 80–90 days and weighting 180–200 g at the beginning of the experiments were used in the study. Each rat group (n = 6–8) was housed in a separate cage and had free access to the liquid diet during the full study period. Prior to the study, the animals were habituated for seven days to the cage conditions and experimental handling. The rats were maintained in a controlled experimental environment (20–25°C, 40–50% humidity, 12 h light per day, room with a 12-h light/dark cycle).
(§2) Rats were divided into ten groups characterized by the diet and the test compounds (S1 Table). Group 1 is the first control group in which a normal solid standard diet was fed for 12 weeks. All other groups received the liquid Lieber-DeCarli (LDC) diet (S2 Table), which combines food and drink in a liquid manner. It was prepared by ssniff Spezialdiäten GmbH, Soest. The addition of maltodextrin to this diet should compensate the pure caloric effect of ethanol, whereby 1.77 g maltodextrin replaces 1 g ethanol. The calorie value of both the control and ethanol diets was the same: 35% calories from fat, 11% from carbohydrates, 18% from protein and 36% from ethanol.
(§3) In the first two weeks rats of all groups–with the exception of group 1 –were fed with LDC diet plus maltodextrin in an appropriate amount to adapt the animals to the liquid diet. Group 2 is the second control group in which the isocaloric diet was administered for further 10 weeks until the end of the experiment. […] The test compounds I-ol, I-an and UDCA were dissolved in a 0.8% aqueous HPMC gel to obtain the appropriate concentrations: (1) I-ol with 0.4, 4 and 40 mg/kg b. w. (2) I-an with 0.4, 4 and 40 mg/kg b. w. (3) UDCA with 40 mg/kg b. w. Rats of group 2 and 3 received only HPMC as a placebo. The LDC diets were fed ad libitum and their intake per cage was controlled daily. The corresponding bottles were stored in the cages from 08:00 a. m. until 06:00 p. m. and replaced by drinking water bottles overnight until 08:00 a. m. in the next morning. Every day at the same time, the test compounds or only HPMC were administered intragastrically by oral gavage with an administration volume of 2 ml/kg b. w. After ten weeks of treatment, the rats were anesthetized with an intraperitoneal injection of a 5% pentobarbital solution and then killed by aorta scarification. Their livers were dissected and liver pieces frozen and stored in liquid nitrogen. A part of the liver was fixed for histological investigations. Blood was collected before sacrifice, centrifuged for serum preparation and finally stored in liquid nitrogen.
(§4) The serum marker enzyme activities, alanine aminotransferase (ALT), aspartate aminotransferase (AST), alkaline phosphatase (AP) and gamma-glutamyltransferase (γ-GT) as well as triglycerides and bilirubin were measured according to manufacturer’s instructions using standard commercial kits from Lachema (PLIVA-Lachema Diagnostika, Czech Republic). Serum concentrations of leptin, adiponectin and TNF-alpha were analyzed using commercial ELISA test kits: BioCat GmbH (Heidelberg, German) for adiponectin and TNF-alpha, BioVendor Laboratory Medicine Inc. (Brno, Czech Republic) for leptin. Insulin serum concentration was determined by radioimmunoassay using the commercially available kit RIO-insulin-PG-J125 (IBOCH, Minsk, Belarus). Glucose serum concentration was determined by the Accu-Check Active blood glucose testing system from Roche-Diagnostics GmbH (Mannheim, Germany).
Lipids were extracted with a chloroform: methanol mixture (2:1 v/v). Neutral lipids and phospholipids were separated into classes by thin-layer chromatography (TLC). Lipid fractions (triglycerides, cholesterol and its fractions) were measured in extracts from scraped spots by routine methods using the appropriate commercial kits. […]

ethanol-fed Wistar rats [2] = experiment: Oxidative stress parameters in liver of ethanol-fed rats (Lieber-DeCarli diet); assay type: in vivo; details: rat liver
From the text: as §1, §2, §3
The generation of reactive oxygen species (ROS) in rat liver was evaluated by NADPH-induced chemiluminescence with amplification by both luminol for the detection of superoxide (SRA) radical anion and lucigenin detecting hydrogen peroxide as described by Müller-Peddinhaus. In short, liver pieces were homogenized in 0.1 M sodium phosphate buffer pH 7.4. The homogenates were centrifuged at 9,000 x g at 0°C and aliquots were used for the measurement. Reduced glutathione (GSH) was determined by a modified Ellman`s method: 0.2 ml of the liver homogenates’ supernatant were added to 1.6 ml of an EDTA-/sodium […] solution. The absorbance was read at […] against blanks. GSH solution—prepared immediately before use—served as a standard. End products of the lipid peroxidation reaction are equivalent to TBARS (thiobarbituric acid-reacting substances) and their concentration was measured according to Buege et al.. The enzymatic activity of cytosolic glutathione peroxidase (GPx) and microsomal glutathione reductase (GR) were determined as described by Buko at al.. Catalase activity was evaluated by spectrophotometric measurement using hydrogen peroxide as a substrate according to Beers et al.. […]

ethanol-fed Wistar rats [3] = experiment: Liver histopathology of ethanol-fed rats; assay type: in vivo, rat; details: I-ol, I-an in their higher concentrations; UDCA 40 mg/kg b.w.; H.E. staining
Description: as §3
Liver samples were selected randomly, fixed in Bouin`s solution and embedded in paraffin wax. Histological sections were prepared and stained with haematoxylin and eosin. Other liver samples were fixed in a solution containing formaldehyde, paraformaldehyde and glutaraldehyde with a subsequent post-fixation in 1% osmium containing phosphate buffer pH 7.4 for further analysis. Liver tissue was embedded in a mixture of butyl-methyl-metacrylates. Semifine sections of 0.5–1.0 μm were stained with Asur II, methylen blue and basic fuxine.

ethanol-fed Wistar rats [4] = experiment: Serum liver enzyme activities of ethanol-fed rats; assay type: in vivo, rat
From the text: as §1, §2, §3, §4

[5] = cited from earlier work
[6] = liver, average over doses (UDCA 40 mg/kg)
[7] = serum, average over doses (UDCA 40 mg/kg)
[8] = average over 0.4/4/40 mg/kg b.w. (UDCA 40 mg/kg), oral, 10 weeks
[9] = average over doses (UDCA 40 mg/kg)

## O=C(O)CCCCCCCCCCCn1ccnc1 [12 (imidazolyl) dodecanoic acids, 12-(imidazolyl)-dodecanoic acid]
CYP2E1; ref Porubsky, Battaile et al. 2010
  affinity to CYP2E1 compared to other ω imidazolyl alkanoic acids (in words): highest affinity

## C=CCSSCC=C [Diallyl disulfide (DADS), Diallyl disulfide]
Cholesterol synthesis
  cholesterol synthesis (in words): abolished

## C[C@H](CCC(=O)O)[C@H]1CC[C@H]2[C@@H]3[C@@H](O)C[C@@H]4C[C@H](O)CC[C@]4(C)[C@H]3CC[C@]12C [UDCA, ursodeoxycholic acid, reference compound]
ethanol-fed Wistar rats [1]; liver, UDCA 40 mg/kg
  liver cholesterol decrease compared to disease group: 11%
  reduction of ethanol effect on hepatic cholesterol: 78%
ethanol-fed Wistar rats [1]; liver, average over 0.4/4/40 mg/kg b.w. (UDCA 40 mg/kg), oral, 10 weeks
  reduction of ethanol effect on hepatic triglycerides: 55%
ethanol-fed Wistar rats [1]; [6]
  liver phospholipids decrease compared to disease group: 20%
  liver triglycerides decrease compared to disease group: 31%
  reduction of ethanol effect on hepatic phospholipids: completely eliminated
ethanol-fed Wistar rats [1]; serum, UDCA 40 mg/kg
  reduction of ethanol effect on serum LDL cholesterol: no significant effect
  reduction of ethanol effect on serum VLDL: no statistically significant reduction
ethanol-fed Wistar rats [1]; [7]
  reduction of ethanol effect on serum triglycerides: 79%
  serum triglycerides decrease compared to disease group: 39%
ethanol-fed Wistar rats [2]; I-ol, I-an 0.4/4/40 mg/kg b.w., UDCA 40 mg/kg, oral, 10 weeks
  reduction of ethanol effect on hydrogen peroxide: 46%
ethanol-fed Wistar rats [2]; UDCA 40 mg/kg b.w.
  GPx activity decrease compared to disease group: 21%
ethanol-fed Wistar rats [2]; average over 0.4/4/40 mg/kg b.w. (UDCA 40 mg/kg)
  reduction of ethanol effect on TBARS: no statistic significant reduction
ethanol-fed Wistar rats [2]; average over 0.4/4/40 mg/kg b.w. (UDCA 40 mg/kg), daily oral gavage, 10 weeks
  reduction of ethanol effect on superoxide radical anion (SRA): no statistic significant reduction
ethanol-fed Wistar rats [2]; [8]
  hydrogen peroxide decrease compared to disease group: 32%
  reduction of ethanol effect on reduced glutathione (GSH): no statistically significant changes
ethanol-fed Wistar rats [2]; [9]
  reduction of ethanol effect on glutathione reductase (GR) activity: no statistically significant result
ethanol-fed Wistar rats [2]; highest concentration (UDCA 40 mg/kg b.w.)
  GPx activity below the reference value in healthy animals: 28%
ethanol-fed Wistar rats [3]
  liver morphology (histopathology, in words): reduce the histopathological effects of ethanol in a comparable way
ethanol-fed Wistar rats [4]; UDCA 40 mg/kg
  reduction of ethanol effect on γ-GT activity: 61%
ethanol-fed Wistar rats [4]; [9]
  ALT activity decrease compared to disease group: 33%
  AP activity decrease compared to disease group: 20%
  AST activity decrease compared to disease group: 19%
  reduction of ethanol effect on AST activity: 83%
  γ-GT activity decrease compared to disease group: 33%
ethanol-fed Wistar rats [4]; on average (UDCA 40 mg/kg)
  reduction of ethanol effect on alkaline phosphatase (AP) activity: 66%
[5]; 28–30 mg/kg/day, patients with ulcerative colitis and PSC
  long-term high-dose safety finding: increased risk of colorectal neoplasia
[5]; network meta-analysis, alcoholic liver disease
  mortality at maximum follow-up versus no intervention group: higher

## O=C(O)CCCCCn1ccnc1 [ω-imidazolylhexanoic acid]
CYP2E1
  spin shift: missing spin shift
